Laboratory results taken from ChEMBL document CHEMBL4507315 (2021).

Assays:
[1] = tested on: Tyrosine-protein kinase ABL1 (Homo sapiens), P00519 [F317I]; conditions: Compound concentration 100.0 nM
[2] = biological target: Tyrosine-protein kinase ABL2 (Homo sapiens) (UniProt P42684); conditions: Compound concentration 100.0 nM
[3] = biological target: Atypical kinase COQ8A, mitochondrial (Homo sapiens) (UniProt Q8NI60); conditions: Compound concentration 100.0 nM
[4] = biological target: RAC-alpha serine/threonine-protein kinase (Homo sapiens) (UniProt P31749); conditions: Compound concentration 100.0 nM
[5] = biological target: Tyrosine-protein kinase receptor UFO (Homo sapiens) (UniProt P30530); conditions: Compound concentration 100.0 nM
[6] = biological target: Serine/threonine-protein kinase BRSK2 (Homo sapiens) (UniProt Q8IWQ3); conditions: Compound concentration 100.0 nM
[7] = biological target: Calcium/calmodulin-dependent protein kinase type 1G (Homo sapiens) (UniProt Q96NX5); conditions: Compound concentration 100.0 nM
[8] = biological target: Dual specificity protein kinase CLK3 (Homo sapiens) (UniProt P49761); conditions: Compound concentration 100.0 nM
[9] = biological target: Casein kinase I isoform epsilon (Homo sapiens) (UniProt P49674); conditions: Compound concentration 100.0 nM
[10] = biological target: Death-associated protein kinase 2 (Homo sapiens) (UniProt Q9UIK4); conditions: Compound concentration 100.0 nM
[11] = biological target: Epithelial discoidin domain-containing receptor 1 (Homo sapiens) (UniProt Q08345); conditions: Compound concentration 100.0 nM
[12] = biological target: Mitogen-activated protein kinase kinase kinase 12 (Homo sapiens) (UniProt Q12852); conditions: Compound concentration 100.0 nM
[13] = tested on: Epidermal growth factor receptor (Homo sapiens), P00533 [G719C]; conditions: Compound concentration 100.0 nM
[14] = tested on: Epidermal growth factor receptor (Homo sapiens), P00533 [UNDEFINED MUTATION]; conditions: Compound concentration 100.0 nM
[15] = biological target: Mitogen-activated protein kinase 6 (Homo sapiens) (UniProt Q16659); conditions: Compound concentration 100.0 nM
[16] = tested on: Fibroblast growth factor receptor 3 (Homo sapiens), P22607 [G697C]; conditions: Compound concentration 100.0 nM
[17] = tested on: Receptor-type tyrosine-protein kinase FLT3 (Homo sapiens), P36888 [UNDEFINED MUTATION]; conditions: Compound concentration 100.0 nM
[18] = tested on: Receptor-type tyrosine-protein kinase FLT3 (Homo sapiens), P36888 [K663Q]; conditions: Compound concentration 100.0 nM
[19] = biological target: Inhibitor of nuclear factor kappa-B kinase subunit alpha (Homo sapiens) (UniProt O15111); conditions: Compound concentration 100.0 nM
[20] = tested on: Mast/stem cell growth factor receptor Kit (Homo sapiens), P10721 [L576P]; conditions: Compound concentration 100.0 nM
[21] = tested on: Mast/stem cell growth factor receptor Kit (Homo sapiens), P10721 [V559D,T670I]; conditions: Compound concentration 100.0 nM
[22] = tested on: Mast/stem cell growth factor receptor Kit (Homo sapiens), P10721 [V559D,V654A]; conditions: Compound concentration 100.0 nM
[23] = biological target: Tyrosine-protein kinase Lck (Homo sapiens) (UniProt P06239); conditions: Compound concentration 100.0 nM
[24] = tested on: Leucine-rich repeat serine/threonine-protein kinase 2 (Homo sapiens), Q5S007 [G2019S]; conditions: Compound concentration 100.0 nM
[25] = biological target: Mitogen-activated protein kinase kinase kinase 2 (Homo sapiens) (UniProt Q9Y2U5); conditions: Compound concentration 100.0 nM
[26] = biological target: Mitogen-activated protein kinase kinase kinase 3 (Homo sapiens) (UniProt Q99759); conditions: Compound concentration 100.0 nM
[27] = biological target: Serine/threonine-protein kinase MARK1 (Homo sapiens) (UniProt Q9P0L2); conditions: Compound concentration 100.0 nM
[28] = biological target: Myosin light chain kinase (Homo sapiens) (UniProt Q32MK0); conditions: Compound concentration 100.0 nM
[29] = biological target: Mitogen-activated protein kinase kinase kinase 11 (Homo sapiens) (UniProt Q16584); conditions: Compound concentration 100.0 nM
[30] = biological target: Serine/threonine-protein kinase MRCK alpha (Homo sapiens) (UniProt Q5VT25); conditions: Compound concentration 100.0 nM
[31] = biological target: Cyclin-dependent kinase 17 (Homo sapiens) (UniProt Q00537); conditions: Compound concentration 100.0 nM
[32] = biological target: Phosphatidylinositol 4,5-bisphosphate 3-kinase catalytic subunit alpha isoform (Homo sapiens) (UniProt P42336); conditions: Compound concentration 100.0 nM
[33] = tested on: Phosphatidylinositol 4,5-bisphosphate 3-kinase catalytic subunit alpha isoform (Homo sapiens), P42336 [C420R]; conditions: Compound concentration 100.0 nM
[34] = biological target: Phosphatidylinositol 4-phosphate 5-kinase type-1 alpha (Homo sapiens) (UniProt Q99755); conditions: Compound concentration 100.0 nM
[35] = biological target: cAMP-dependent protein kinase catalytic subunit alpha (Homo sapiens) (UniProt P17612); conditions: Compound concentration 100.0 nM
[36] = biological target: Protein kinase C eta type (Homo sapiens) (UniProt P24723); conditions: Compound concentration 100.0 nM
[37] = biological target: Serine/threonine-protein kinase TAO1 (Homo sapiens) (UniProt Q7L7X3); conditions: Compound concentration 100.0 nM
[38] = biological target: Activated CDC42 kinase 1 (Homo sapiens) (UniProt Q07912); conditions: Compound concentration 100.0 nM
[39] = biological target: Serine/threonine-protein kinase 32C (Homo sapiens) (UniProt Q86UX6); conditions: Compound concentration 100.0 nM
[40] = biological target: Mitogen-activated protein kinase kinase kinase 20 (Homo sapiens, UniProt Q9NYL2); conditions: Compound concentration 100.0 nM
[41] = biological target: 5-hydroxytryptamine receptor 2B (Homo sapiens) (UniProt P41595); conditions: Compound concentration 10.0 uM
[42] = biological target: 5-hydroxytryptamine receptor 2C (Homo sapiens) (UniProt P28335); conditions: Compound concentration 10.0 uM
[43] = biological target: Histamine H3 receptor (Homo sapiens) (UniProt Q9Y5N1); conditions: Compound concentration 10.0 uM
[44] = biological target: Alpha-1A adrenergic receptor (Homo sapiens) (UniProt P35348); conditions: Compound concentration 10.0 uM

Tyrosine-protein kinase ABL2 (Homo sapiens), sequence (P42684 whole entry): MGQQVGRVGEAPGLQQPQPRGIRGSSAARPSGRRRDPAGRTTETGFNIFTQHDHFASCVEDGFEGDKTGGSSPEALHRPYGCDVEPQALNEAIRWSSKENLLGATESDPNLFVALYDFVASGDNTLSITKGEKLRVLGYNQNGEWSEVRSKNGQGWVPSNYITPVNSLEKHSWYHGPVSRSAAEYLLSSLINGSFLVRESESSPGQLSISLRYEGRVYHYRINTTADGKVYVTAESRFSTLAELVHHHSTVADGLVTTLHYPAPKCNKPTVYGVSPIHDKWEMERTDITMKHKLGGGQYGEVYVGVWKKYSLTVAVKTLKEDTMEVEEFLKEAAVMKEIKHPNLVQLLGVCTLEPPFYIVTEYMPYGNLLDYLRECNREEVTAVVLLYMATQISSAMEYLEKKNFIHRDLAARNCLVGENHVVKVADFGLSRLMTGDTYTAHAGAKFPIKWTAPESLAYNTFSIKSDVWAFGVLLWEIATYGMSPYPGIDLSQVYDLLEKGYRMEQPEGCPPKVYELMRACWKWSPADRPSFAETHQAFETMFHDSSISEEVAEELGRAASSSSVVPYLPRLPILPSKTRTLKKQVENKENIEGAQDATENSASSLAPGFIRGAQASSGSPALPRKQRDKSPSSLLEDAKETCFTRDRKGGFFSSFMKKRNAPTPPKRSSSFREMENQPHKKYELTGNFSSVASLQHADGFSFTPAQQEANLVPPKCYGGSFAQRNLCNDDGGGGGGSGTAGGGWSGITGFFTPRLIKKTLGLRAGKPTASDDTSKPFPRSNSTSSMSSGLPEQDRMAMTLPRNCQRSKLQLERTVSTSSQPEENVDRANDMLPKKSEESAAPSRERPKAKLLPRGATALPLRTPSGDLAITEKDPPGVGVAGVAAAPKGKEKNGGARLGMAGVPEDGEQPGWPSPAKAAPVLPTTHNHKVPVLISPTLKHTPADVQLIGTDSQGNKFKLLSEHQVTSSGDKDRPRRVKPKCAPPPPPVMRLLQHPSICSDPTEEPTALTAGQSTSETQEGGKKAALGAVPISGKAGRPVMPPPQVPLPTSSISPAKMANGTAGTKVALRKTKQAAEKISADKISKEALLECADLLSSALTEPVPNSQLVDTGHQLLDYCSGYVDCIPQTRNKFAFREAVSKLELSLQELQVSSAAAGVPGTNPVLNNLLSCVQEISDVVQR
Tyrosine-protein kinase receptor UFO (Homo sapiens), sequence (P30530 whole entry): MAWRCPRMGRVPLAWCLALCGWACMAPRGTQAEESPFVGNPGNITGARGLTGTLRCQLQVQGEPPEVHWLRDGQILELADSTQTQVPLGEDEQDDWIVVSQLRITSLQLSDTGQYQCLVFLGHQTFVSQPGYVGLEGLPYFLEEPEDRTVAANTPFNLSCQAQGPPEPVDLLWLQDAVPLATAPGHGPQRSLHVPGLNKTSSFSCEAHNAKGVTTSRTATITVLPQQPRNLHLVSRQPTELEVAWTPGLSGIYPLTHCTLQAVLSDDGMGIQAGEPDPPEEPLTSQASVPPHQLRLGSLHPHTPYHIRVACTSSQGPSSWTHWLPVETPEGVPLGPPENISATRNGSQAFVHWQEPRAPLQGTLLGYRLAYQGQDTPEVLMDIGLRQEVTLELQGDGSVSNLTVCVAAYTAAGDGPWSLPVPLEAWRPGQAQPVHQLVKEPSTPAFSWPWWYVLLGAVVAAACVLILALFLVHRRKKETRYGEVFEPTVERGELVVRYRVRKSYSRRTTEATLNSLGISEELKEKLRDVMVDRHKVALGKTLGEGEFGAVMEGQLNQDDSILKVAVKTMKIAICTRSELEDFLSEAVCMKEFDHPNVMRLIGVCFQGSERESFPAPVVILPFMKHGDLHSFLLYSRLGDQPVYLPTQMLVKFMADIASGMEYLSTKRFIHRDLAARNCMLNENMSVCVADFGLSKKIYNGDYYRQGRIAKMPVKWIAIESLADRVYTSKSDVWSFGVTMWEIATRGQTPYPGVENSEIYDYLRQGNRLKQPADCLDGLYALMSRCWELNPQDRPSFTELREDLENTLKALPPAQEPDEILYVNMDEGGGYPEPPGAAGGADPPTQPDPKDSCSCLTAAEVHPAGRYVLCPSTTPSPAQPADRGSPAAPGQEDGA
Cyclin-dependent kinase 17 (Homo sapiens), sequence (Q00537 whole entry, looked up, canonical isoform): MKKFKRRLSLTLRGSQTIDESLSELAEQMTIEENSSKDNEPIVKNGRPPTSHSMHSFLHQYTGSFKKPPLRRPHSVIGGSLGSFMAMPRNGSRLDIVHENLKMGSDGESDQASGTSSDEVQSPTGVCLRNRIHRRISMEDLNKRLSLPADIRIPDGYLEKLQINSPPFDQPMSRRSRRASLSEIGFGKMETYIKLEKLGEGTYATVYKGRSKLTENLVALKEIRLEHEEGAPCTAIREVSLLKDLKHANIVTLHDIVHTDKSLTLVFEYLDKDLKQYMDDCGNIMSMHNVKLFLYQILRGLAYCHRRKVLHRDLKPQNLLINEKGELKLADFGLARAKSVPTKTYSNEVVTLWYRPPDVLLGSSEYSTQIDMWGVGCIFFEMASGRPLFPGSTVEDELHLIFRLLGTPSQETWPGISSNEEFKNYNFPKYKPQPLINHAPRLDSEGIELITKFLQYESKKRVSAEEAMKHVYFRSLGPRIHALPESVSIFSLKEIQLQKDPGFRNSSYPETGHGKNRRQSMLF
Calcium/calmodulin-dependent protein kinase type 1G (Homo sapiens), sequence (Q96NX5 whole entry): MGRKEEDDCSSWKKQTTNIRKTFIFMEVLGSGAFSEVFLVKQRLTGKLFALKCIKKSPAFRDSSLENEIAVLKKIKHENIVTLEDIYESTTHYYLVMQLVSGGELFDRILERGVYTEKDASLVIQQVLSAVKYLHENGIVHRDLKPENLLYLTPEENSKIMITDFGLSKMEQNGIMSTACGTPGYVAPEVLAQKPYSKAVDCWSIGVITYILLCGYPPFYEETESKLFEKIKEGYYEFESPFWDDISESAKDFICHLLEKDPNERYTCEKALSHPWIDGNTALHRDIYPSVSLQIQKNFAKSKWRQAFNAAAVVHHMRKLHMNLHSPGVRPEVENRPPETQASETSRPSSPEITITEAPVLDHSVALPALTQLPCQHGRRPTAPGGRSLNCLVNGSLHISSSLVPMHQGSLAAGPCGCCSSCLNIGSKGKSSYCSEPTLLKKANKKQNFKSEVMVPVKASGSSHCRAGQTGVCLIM
Casein kinase I isoform epsilon (Homo sapiens), sequence (P49674 whole entry, looked up, canonical isoform): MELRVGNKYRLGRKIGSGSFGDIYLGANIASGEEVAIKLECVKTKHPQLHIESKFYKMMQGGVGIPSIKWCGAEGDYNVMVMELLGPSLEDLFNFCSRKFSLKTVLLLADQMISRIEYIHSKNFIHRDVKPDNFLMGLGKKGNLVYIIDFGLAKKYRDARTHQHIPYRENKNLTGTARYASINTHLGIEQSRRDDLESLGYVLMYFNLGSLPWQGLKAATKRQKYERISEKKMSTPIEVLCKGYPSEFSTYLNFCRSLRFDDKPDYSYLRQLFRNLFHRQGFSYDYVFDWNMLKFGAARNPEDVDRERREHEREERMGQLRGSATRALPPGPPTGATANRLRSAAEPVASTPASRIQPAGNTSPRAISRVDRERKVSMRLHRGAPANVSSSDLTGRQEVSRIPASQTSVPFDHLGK
5-hydroxytryptamine receptor 2C (Homo sapiens), sequence (P28335 whole entry): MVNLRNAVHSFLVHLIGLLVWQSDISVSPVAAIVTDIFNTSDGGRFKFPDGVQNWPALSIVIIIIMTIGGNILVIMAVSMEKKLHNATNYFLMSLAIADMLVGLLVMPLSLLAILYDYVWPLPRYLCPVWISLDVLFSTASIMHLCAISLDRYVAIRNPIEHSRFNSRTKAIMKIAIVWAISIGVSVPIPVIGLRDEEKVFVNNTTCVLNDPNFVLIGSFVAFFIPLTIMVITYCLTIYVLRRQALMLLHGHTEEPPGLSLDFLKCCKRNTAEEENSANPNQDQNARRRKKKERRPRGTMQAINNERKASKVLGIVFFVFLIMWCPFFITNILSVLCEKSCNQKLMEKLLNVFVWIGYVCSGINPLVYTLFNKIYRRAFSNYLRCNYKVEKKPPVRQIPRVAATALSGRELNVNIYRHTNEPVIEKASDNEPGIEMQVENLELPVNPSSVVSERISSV
Phosphatidylinositol 4-phosphate 5-kinase type-1 alpha (Homo sapiens), sequence (Q99755 whole entry): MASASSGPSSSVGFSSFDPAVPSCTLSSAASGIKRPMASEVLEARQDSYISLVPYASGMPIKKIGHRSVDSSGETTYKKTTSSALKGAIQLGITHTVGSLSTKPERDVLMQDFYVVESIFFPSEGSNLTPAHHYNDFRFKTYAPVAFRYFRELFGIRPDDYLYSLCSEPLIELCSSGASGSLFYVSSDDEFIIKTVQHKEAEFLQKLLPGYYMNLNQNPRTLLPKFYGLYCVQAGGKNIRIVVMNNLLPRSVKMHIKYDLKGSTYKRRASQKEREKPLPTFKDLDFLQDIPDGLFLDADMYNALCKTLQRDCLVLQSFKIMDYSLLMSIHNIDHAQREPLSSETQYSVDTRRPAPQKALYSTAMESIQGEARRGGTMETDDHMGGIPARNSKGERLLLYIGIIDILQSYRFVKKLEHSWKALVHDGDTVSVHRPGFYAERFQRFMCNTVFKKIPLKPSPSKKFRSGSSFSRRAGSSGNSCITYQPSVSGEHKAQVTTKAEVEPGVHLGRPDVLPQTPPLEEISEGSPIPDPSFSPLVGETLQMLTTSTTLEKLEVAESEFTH
Tyrosine-protein kinase Lck (Homo sapiens), sequence (P06239 2-509 limits assumed): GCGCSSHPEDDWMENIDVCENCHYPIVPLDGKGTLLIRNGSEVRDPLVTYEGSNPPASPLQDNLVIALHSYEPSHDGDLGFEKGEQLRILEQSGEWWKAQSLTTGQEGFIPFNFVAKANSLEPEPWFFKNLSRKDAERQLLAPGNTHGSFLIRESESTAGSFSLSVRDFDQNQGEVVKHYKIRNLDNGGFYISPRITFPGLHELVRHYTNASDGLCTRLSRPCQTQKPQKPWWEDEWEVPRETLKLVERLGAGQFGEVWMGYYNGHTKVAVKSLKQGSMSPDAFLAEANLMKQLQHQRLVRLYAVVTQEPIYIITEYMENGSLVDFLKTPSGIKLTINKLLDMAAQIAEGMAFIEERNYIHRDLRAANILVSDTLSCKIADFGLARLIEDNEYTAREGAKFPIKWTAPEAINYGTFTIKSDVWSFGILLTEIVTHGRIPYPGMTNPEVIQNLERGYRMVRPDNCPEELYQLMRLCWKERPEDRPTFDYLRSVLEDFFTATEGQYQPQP

In the case of `Nc1c(C(=O)NCc2ccc(C(=O)NCCCC3CCCCC3)cc2)cnn1-c1ccccc1` [SR-318], the residual activity [1] is reported as 100%, the residual activity [2] is reported as 100% and the residual activity [3] is reported as 100%. The residual activity [4] was 100%, the residual activity [5] was 87% and the residual activity [6] was 79%. It also gave a residual activity [7] of 100%, a residual activity [8] of 95% and a residual activity [9] of 98%. For the same compound, the residual activity [10] was 100%, the residual activity [11] was 43% and the residual activity [12] was 100%. It also gave a residual activity [13] of 85%, a residual activity [14] of 100% and a residual activity [15] of 92%. It also gave a residual activity [16] of 87%, a residual activity [17] of 73% and a residual activity [18] of 100%. For the same compound, the residual activity [19] was 100%, the residual activity [20] was 73% and the residual activity [21] was 98%. The residual activity [22] was 100%, the residual activity [23] was 82% and the residual activity [24] was 100%. The residual activity [25] was 100%, the residual activity [26] was 100% and the residual activity [27] was 79%. It also gave a residual activity [28] of 100%, a residual activity [29] of 76% and a residual activity [30] of 100%. For the same compound, the residual activity [31] was 78%, the residual activity [32] was 100% and the residual activity [33] was 100%. For the same compound, the residual activity [34] was 100%, the residual activity [35] was 100% and the residual activity [36] was 98%. The residual activity [37] was 91%, the residual activity [38] was 89% and the residual activity [39] was 90%. The residual activity [40] was 42%, the inhibition [41] was 19.9% and the inhibition [42] was 10%. For the same compound, the inhibition [43] was -2.98% and the inhibition [44] was 36.9%.
Work on `O=C(NCCCC1CCCCC1)c1ccc(CNC(=O)c2cnn(-c3ccccc3)c2C(F)(F)F)cc1` [SR-321] yielded a residual activity [1] of 100%, a residual activity [2] of 87% and a residual activity [3] of 100%. The residual activity [4] was 100%, the residual activity [5] was 95% and the residual activity [6] was 100%. The residual activity [7] was 100%, the residual activity [8] was 100% and the residual activity [9] was 100%. The residual activity [10] was 98%, the residual activity [11] was 100% and the residual activity [12] was 100%. The residual activity [13] was 96%, the residual activity [14] was 100% and the residual activity [15] was 100%. For the same compound, the residual activity [16] was 100%, the residual activity [17] was 100% and the residual activity [18] was 100%. The residual activity [19] was 100%, the residual activity [20] was 100% and the residual activity [21] was 100%. The residual activity [22] was 100%, the residual activity [23] was 100% and the residual activity [24] was 100%. It also gave a residual activity [25] of 100%, a residual activity [26] of 100% and a residual activity [27] of 100%. It also gave a residual activity [28] of 92%, a residual activity [29] of 100% and a residual activity [30] of 100%. For the same compound, the residual activity [31] was 100%, the residual activity [32] was 100% and the residual activity [33] was 85%. The residual activity [34] was 100%, the residual activity [35] was 100% and the residual activity [36] was 100%. It also gave a residual activity [37] of 96%, a residual activity [38] of 100% and a residual activity [39] of 100%. For the same compound, the residual activity [40] was 100%, the inhibition [41] was 3.69% and the inhibition [42] was 6.21%. The inhibition [43] was 9.12% and the inhibition [44] was 17.9%.
